Results from patent US20080299176A1, “DRUG DELIVERY DEVICE COMPRISING CROSSLINKED POLYURETHANE-SILOXANE-CONTAINING COPOLYMERS” (priority 2007, published 2008).

Test: Diffusion of FA through the copolymer membranes (Valia-Chien diffusion apparatus)
Assay type: physicochemical
Conditions: membrane of Example 5 composition, thickness 100 μm; PBS, 37° C.; FA 2 mg in donor cell; HPLC at 238 nm
Description: The diffusion was carried out using Valia-Chien diffusion apparatus. FA and membranes with a composition described in Example 5 were used. FA (2 mg) and PBS (3.2 mL) were added to each of the donor cells, and 3.2 mL PBS were added in each of the receptor cells. The cells were capped and the temperature was kept at 37° C. using a circulating water bath. At given time intervals, the diffusion media in the receptor cells were removed and replaced by fresh PBS. FA concentration in the release media was determined using a set of HP series 1100 HPLC instruments equipped with a degasser, a binary pump, an auto sampler and a DAD detector. The column used was an Altima C18 (5μ, 250 mm×4.6 mm). The mobile phase was 40% ACN in water and the flow rate was 1.0 mL/m in. The eluted FA was detected at 238 nm. The concentration of FA in the media was directly determined using HPLC. The diffusion rate of FA through the copolymer membranes with a thickness of 100 μm was estimated to be 1.4 μg/cm^2/hour.

diffusion rate of FA through the copolymer membranes: 1.4 μg/cm^2/hour
Structure (SMILES): CC1(C)O[C@@H]2C[C@H]3[C@@H]4C[C@H](F)C5=CC(=O)C=C[C@]5(C)[C@@]4(F)[C@@H](O)C[C@]3(C)[C@]2(C(=O)CO)O1 [FA, fluocinolone acetonide]
